Laboratory results reported in ChEMBL document CHEMBL4680155, “One-pot synthesis and molecular docking of some new spiropyranindol-2-one derivatives as immunomodulatory agents and in vitro antimicrobial potential with DNA gyrase inhibitor” (Eur J Med Chem, 2020).
≈ marks a conversion by molar mass, not a printed value.

Key:
Escherichia coli [1] = experiment: Antibacterial activity against multidrug resistant Escherichia coli ATCC BAA-196 assessed as diameter of inhibition zone at 0.5 mg/ml incubated for 24 hrs by agar diffusion method; type: functional; settings: read-out: DIZ
Aspergillus brasiliensis [2] = experiment: Antifungal activity against Aspergillus brasiliensis ATCC 16404 assessed as diameter of inhibition zone at 0.5 mg/ml incubated for 72 hrs by agar diffusion method; type: functional; settings: read-out: DIZ
Aspergillus brasiliensis [3] = experiment: Antifungal activity against Aspergillus brasiliensis ATCC 16404 assessed as reduction in bacterial growth incubated for 3 days by paper disk diffusion method; type: functional; settings: ATCC 16404, 72 h, time 3 day
Enterococcus faecalis [4] = experiment: Antibacterial activity against Enterococcus faecalis ATCC 29212 assessed as reduction in bacterial growth incubated for 1 day by paper disk diffusion method; type: functional; settings: ATCC 29212, 24 h
Escherichia coli [5] = experiment: Bactericidal activity against Escherichia coli ATCC 25922 incubated for 24 hrs followed by transferring to freshly prepared broth medium and measured after 24 hrs by broth microdilution assay; type: functional; settings: time 48 hrs
Staphylococcus aureus [6] = experiment: Antibacterial activity against multidrug resistant Staphylococcus aureus ATCC 43300 assessed as reduction in bacterial growth incubated for 1 day by paper disk diffusion method; type: functional; settings: ATCC 43300, 24 h
Aspergillus brasiliensis [7] = experiment: Fungicidal activity against Aspergillus brasiliensis ATCC 16404 incubated for 72 hrs followed by transferring to freshly prepared broth medium and measured after 24 hrs by broth microdilution assay; type: functional; settings: time 96 hrs
Pseudomonas aeruginosa [8] = experiment: Bactericidal activity against Pseudomonas aeruginosa ATCC BAA-2111 incubated for 24 hrs followed by transferring to freshly prepared broth medium and measured after 24 hrs by broth microdilution assay; type: functional; settings: time 48 hrs
Staphylococcus aureus [9] = experiment: Bactericidal activity against Staphylococcus aureus ATCC 43300 incubated for 24 hrs followed by transferring to freshly prepared broth medium and measured after 24 hrs by broth microdilution assay; type: functional; settings: time 48 hrs
Pseudomonas aeruginosa [10] = experiment: Antibacterial activity against multidrug resistant Pseudomonas aeruginosa ATCC BAA-2111 assessed as reduction in bacterial growth incubated for 1 day by paper disk diffusion method; type: functional; settings: ATCC BAA-2111, 24 h
Escherichia coli [11] = experiment: Antibacterial activity against Escherichia coli ATCC 25922 assessed as diameter of inhibition zone at 0.5 mg/ml incubated for 24 hrs by agar diffusion method; type: functional; settings: read-out: DIZ
Candida albicans [12] = experiment: Antifungal activity against Candida albicans ATCC 10231 assessed as reduction in bacterial growth incubated for 1 day by paper disk diffusion method; type: functional; settings: ATCC 10231, 24 h
Candida albicans [13] = experiment: Fungicidal activity against Candida albicans ATCC 10231 incubated for 24 hrs followed by transferring to freshly prepared broth medium and measured after 24 hrs by broth microdilution assay; type: functional; settings: time 48 hrs
Salmonella typhimurium [14] = experiment: Bactericidal activity against Salmonella typhi ATCC 6539 incubated for 24 hrs followed by transferring to freshly prepared broth medium and measured after 24 hrs by broth microdilution assay; type: functional, Salmonella enterica subsp. enterica serovar […]; settings: Salmonella enterica, time 48 hrs
Escherichia coli [15] = experiment: Antibacterial activity against Escherichia coli ATCC 25922 assessed as reduction in bacterial growth incubated for 1 day by paper disk diffusion method; type: functional; settings: ATCC 25922, 24 h
Staphylococcus aureus [16] = experiment: Bactericidal activity against Staphylococcus aureus ATCC 33591 incubated for 24 hrs followed by transferring to freshly prepared broth medium and measured after 24 hrs by broth microdilution assay; type: functional; settings: time 48 hrs
Staphylococcus aureus [17] = experiment: Antibacterial activity against multidrug resistant Staphylococcus aureus ATCC 33591 assessed as diameter of inhibition zone at 0.5 mg/ml incubated for 24 hrs by agar diffusion method; type: functional; settings: read-out: DIZ
Neutrophil = experiment: Immunomodulatory activity in human neutrophils infected with bacteria assessed as increase in bacterial killing by measuring reduced NBT incubated for 30 mins by NBT dye based spectrophotometry; type: functional; set-up: concentration or dose not given beside the values; settings: 0.5 h
Staphylococcus aureus [18] = experiment: Antibacterial activity against Staphylococcus aureus ATCC 29213 assessed as diameter of inhibition zone at 0.5 mg/ml incubated for 24 hrs by agar diffusion method; type: functional; settings: read-out: DIZ
Staphylococcus aureus [19] = experiment: Antibacterial activity against multidrug resistant Staphylococcus aureus ATCC 43300 assessed as diameter of inhibition zone at 0.5 mg/ml incubated for 24 hrs by agar diffusion method; type: functional; settings: read-out: DIZ
DNA gyrase = DNA gyrase (Staphylococcus aureus, UniProt P0A0K8+P20831); experiment: Inhibition of Staphylococcus aureus DNA gyrase using relaxed pBR322 DNA as substrate incubated for 45 mins by agarose gel electrophoresis method; type: protein-complex assay
Sequence of DNA gyrase (P0A0K8 whole entry, the tested form may be a part): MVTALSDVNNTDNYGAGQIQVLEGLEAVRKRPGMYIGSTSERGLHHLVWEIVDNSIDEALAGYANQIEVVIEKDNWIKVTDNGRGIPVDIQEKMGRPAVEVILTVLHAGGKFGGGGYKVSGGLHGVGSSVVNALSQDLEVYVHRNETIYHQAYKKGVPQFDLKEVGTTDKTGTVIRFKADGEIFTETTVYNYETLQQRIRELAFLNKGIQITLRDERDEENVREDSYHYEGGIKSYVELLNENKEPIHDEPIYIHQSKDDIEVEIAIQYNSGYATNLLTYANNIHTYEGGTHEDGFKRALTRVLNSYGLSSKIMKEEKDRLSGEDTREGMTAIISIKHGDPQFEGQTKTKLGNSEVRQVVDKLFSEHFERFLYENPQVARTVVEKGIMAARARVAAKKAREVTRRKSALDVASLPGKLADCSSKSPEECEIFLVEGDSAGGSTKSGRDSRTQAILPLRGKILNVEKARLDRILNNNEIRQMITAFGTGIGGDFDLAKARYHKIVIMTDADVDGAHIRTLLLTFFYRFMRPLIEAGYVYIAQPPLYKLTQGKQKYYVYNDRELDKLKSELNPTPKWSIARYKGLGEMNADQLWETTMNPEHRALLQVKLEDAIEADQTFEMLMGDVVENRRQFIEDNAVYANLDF
Sequence of DNA gyrase (P20831 whole entry, the tested form may be a part): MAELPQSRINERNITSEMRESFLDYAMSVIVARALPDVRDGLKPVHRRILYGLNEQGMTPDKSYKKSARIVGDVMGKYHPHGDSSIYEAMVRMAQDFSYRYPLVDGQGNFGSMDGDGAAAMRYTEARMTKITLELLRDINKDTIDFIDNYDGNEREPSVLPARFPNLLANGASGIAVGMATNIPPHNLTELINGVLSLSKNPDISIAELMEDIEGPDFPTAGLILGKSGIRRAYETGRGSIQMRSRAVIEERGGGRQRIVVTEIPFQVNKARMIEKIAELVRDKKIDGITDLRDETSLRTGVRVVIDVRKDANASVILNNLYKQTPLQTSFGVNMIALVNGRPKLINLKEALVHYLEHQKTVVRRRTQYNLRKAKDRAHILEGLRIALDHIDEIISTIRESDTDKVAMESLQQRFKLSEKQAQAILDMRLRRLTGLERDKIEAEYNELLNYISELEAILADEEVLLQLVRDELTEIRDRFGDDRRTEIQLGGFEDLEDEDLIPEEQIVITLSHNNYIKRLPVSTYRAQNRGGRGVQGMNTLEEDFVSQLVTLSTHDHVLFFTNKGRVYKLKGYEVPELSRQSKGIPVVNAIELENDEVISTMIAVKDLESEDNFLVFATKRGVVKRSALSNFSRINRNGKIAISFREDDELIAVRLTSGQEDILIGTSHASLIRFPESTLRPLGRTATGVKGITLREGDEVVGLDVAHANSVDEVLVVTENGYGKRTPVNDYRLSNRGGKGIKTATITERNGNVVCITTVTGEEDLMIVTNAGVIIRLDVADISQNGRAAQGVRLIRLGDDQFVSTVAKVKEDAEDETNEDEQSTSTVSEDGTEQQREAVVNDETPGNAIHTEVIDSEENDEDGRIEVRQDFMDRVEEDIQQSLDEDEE

Enterococcus faecalis [20] = experiment: Antibacterial activity against Enterococcus faecalis ATCC 29212 assessed as diameter of inhibition zone at 0.5 mg/ml incubated for 24 hrs by agar diffusion method; type: functional; settings: read-out: DIZ
Candida albicans [21] = experiment: Antifungal activity against Candida albicans ATCC 10231 assessed as diameter of inhibition zone at 0.5 mg/ml incubated for 24 hrs by agar diffusion method; type: functional; settings: read-out: DIZ
Salmonella typhimurium [22] = experiment: Antibacterial activity against Salmonella typhi ATCC 6539 assessed as reduction in bacterial growth incubated for 1 day by paper disk diffusion method; type: functional, Salmonella enterica subsp. enterica serovar Typhimurium; settings: Salmonella enterica, ATCC 6539, 24 h
Staphylococcus aureus [23] = experiment: Bactericidal activity against Staphylococcus aureus ATCC 29213 incubated for 24 hrs followed by transferring to freshly prepared broth medium and measured after 24 hrs by broth microdilution assay; type: functional; settings: time 48 hrs
Salmonella typhimurium [24] = experiment: Antibacterial activity against Salmonella typhi ATCC 6539 assessed as diameter of inhibition zone at 0.5 mg/ml incubated for 24 hrs by agar diffusion method; type: functional, Salmonella enterica subsp. enterica serovar Typhimurium; settings: Salmonella enterica, read-out: DIZ
Staphylococcus aureus [25] = experiment: Antibacterial activity against Staphylococcus aureus ATCC 29213 assessed as reduction in bacterial growth incubated for 1 day by paper disk diffusion method; type: functional; settings: ATCC 29213, 24 h
Staphylococcus aureus [26] = experiment: Antibacterial activity against multidrug resistant Staphylococcus aureus ATCC 33591 assessed as reduction in bacterial growth incubated for 1 day by paper disk diffusion method; type: functional; settings: ATCC 33591, 24 h
Enterococcus faecalis [27] = experiment: Bactericidal activity against Enterococcus faecalis ATCC 29212 incubated for 24 hrs followed by transferring to freshly prepared broth medium and measured after 24 hrs by broth microdilution assay; type: functional; settings: time 48 hrs
Pseudomonas aeruginosa [28] = experiment: Antibacterial activity against multidrug resistant Pseudomonas aeruginosa ATCC BAA-2111 assessed as diameter of inhibition zone at 0.5 mg/ml incubated for 24 hrs by agar diffusion method; type: functional; settings: read-out: DIZ
Escherichia coli [29] = experiment: Antibacterial activity against multidrug resistant Escherichia coli ATCC BAA-196 assessed as reduction in bacterial growth incubated for 1 day by paper disk diffusion method; type: functional; settings: ATCC BAA-196, 24 h
Escherichia coli [30] = experiment: Bactericidal activity against Escherichia coli ATCC BAA-196 incubated for 24 hrs followed by transferring to freshly prepared broth medium and measured after 24 hrs by broth microdilution assay; type: functional; settings: time 48 hrs

## N#CC(C#N)=C1C(=O)Nc2ccc(S(=O)(=O)N3CCOCC3)cc21
Escherichia coli [1]
  zone of inhibition at 500 µg/mL: 25 mm
Aspergillus brasiliensis [2]
  zone of inhibition at 500 µg/mL: 19 mm
Aspergillus brasiliensis [3]
  MIC: 62.5 µg/mL (≈ 182 µM)
Enterococcus faecalis [4]
  MIC: 8.88 µg/mL (≈ 25.8 µM)
Escherichia coli [5]
  MBC: 15.6 µg/mL (≈ 45.4 µM)
Staphylococcus aureus [6]
  MIC: 3.9 µg/mL (≈ 11.3 µM)
Aspergillus brasiliensis [7]
  MFC: 100 µg/mL (≈ 290 µM)
Pseudomonas aeruginosa [8]
  MBC: 7.99 µg/mL (≈ 23.2 µM)
Staphylococcus aureus [9]
  MBC: 5.04 µg/mL (≈ 14.6 µM)
Pseudomonas aeruginosa [10]
  MIC: 4.44 µg/mL (≈ 12.9 µM)
Escherichia coli [11]
  zone of inhibition at 500 µg/mL: 25 mm
Candida albicans [12]
  MIC: 6.25 µg/mL (≈ 18.2 µM)
Candida albicans [13]
  MFC: 12.5 µg/mL (≈ 36.3 µM)
Salmonella typhimurium [14]
  MBC: 28.1 µg/mL (≈ 81.6 µM)
Escherichia coli [15]
  MIC: 7.81 µg/mL (≈ 22.7 µM)
Staphylococcus aureus [16]
  MBC: 8.88 µg/mL (≈ 25.8 µM)
Staphylococcus aureus [17]
  zone of inhibition at 500 µg/mL: 24 mm
Neutrophil
  Activity: 145.7%
Staphylococcus aureus [18]
  zone of inhibition at 500 µg/mL: 24 mm
Staphylococcus aureus [19]
  zone of inhibition at 500 µg/mL: 24 mm
DNA gyrase
  IC50: 26.4 µM
Enterococcus faecalis [20]
  zone of inhibition at 500 µg/mL: 23 mm
Candida albicans [21]
  zone of inhibition at 500 µg/mL: 22 mm
Salmonella typhimurium [22]
  MIC: 15.6 µg/mL (≈ 45.4 µM)
Staphylococcus aureus [23]
  MBC: 46.2 µg/mL (≈ 134 µM)
Salmonella typhimurium [24]
  zone of inhibition at 500 µg/mL: 23 mm
Staphylococcus aureus [25]
  MIC: 35.5 µg/mL (≈ 103 µM)
Staphylococcus aureus [26]
  MIC: 4.44 µg/mL (≈ 12.9 µM)
Enterococcus faecalis [27]
  MBC: 11.5 µg/mL (≈ 33.5 µM)
Pseudomonas aeruginosa [28]
  zone of inhibition at 500 µg/mL: 23 mm
Escherichia coli [29]
  MIC: 3.9 µg/mL (≈ 11.3 µM)
Escherichia coli [30]
  MBC: 6.24 µg/mL (≈ 18.1 µM)

## CC(=O)C1=C(C)OC(N)=C(C#N)C12C(=O)Nc1ccc(S(=O)(=O)N3CCOCC3)cc12 (centres undefined)
Escherichia coli [1]
  zone of inhibition at 500 µg/mL: 22 mm
Aspergillus brasiliensis [2]
  zone of inhibition at 500 µg/mL: 14 mm
Aspergillus brasiliensis [3]
  MIC: 125 µg/mL (≈ 281 µM)
Enterococcus faecalis [4]
  MIC: 17.8 µg/mL (≈ 40 µM)
Escherichia coli [5]
  MBC: 23.4 µg/mL (≈ 52.7 µM)
Staphylococcus aureus [6]
  MIC: 7.81 µg/mL (≈ 17.6 µM)
Aspergillus brasiliensis [7]
  MFC: 150 µg/mL (≈ 337 µM)
Pseudomonas aeruginosa [8]
  MBC: 17.8 µg/mL (≈ 40 µM)
Staphylococcus aureus [9]
  MBC: 12.5 µg/mL (≈ 28.1 µM)
Pseudomonas aeruginosa [10]
  MIC: 8.88 µg/mL (≈ 20 µM)
Escherichia coli [11]
  zone of inhibition at 500 µg/mL: 21 mm
Candida albicans [12]
  MIC: 7.81 µg/mL (≈ 17.6 µM)
Candida albicans [13]
  MFC: 15.6 µg/mL (≈ 35.1 µM)
Salmonella typhimurium [14]
  MBC: 50 µg/mL (≈ 112 µM)
Escherichia coli [15]
  MIC: 15.6 µg/mL (≈ 35.1 µM)
Staphylococcus aureus [16]
  MBC: 9.37 µg/mL (≈ 21.1 µM)
Staphylococcus aureus [17]
  zone of inhibition at 500 µg/mL: 20 mm
Neutrophil
  Activity: 112.9%
Staphylococcus aureus [18]
  zone of inhibition at 500 µg/mL: 22 mm
Staphylococcus aureus [19]
  zone of inhibition at 500 µg/mL: 21 mm
DNA gyrase
  IC50: 25.1 µM
Enterococcus faecalis [20]
  zone of inhibition at 500 µg/mL: 20 mm
Candida albicans [21]
  zone of inhibition at 500 µg/mL: 21 mm
Salmonella typhimurium [22]
  MIC: 31.2 µg/mL (≈ 70.3 µM)
Staphylococcus aureus [23]
  MBC: 85.3 µg/mL (≈ 192 µM)
Salmonella typhimurium [24]
  zone of inhibition at 500 µg/mL: 19 mm
Staphylococcus aureus [25]
  MIC: 71.1 µg/mL (≈ 160 µM)
Staphylococcus aureus [26]
  MIC: 7.81 µg/mL (≈ 17.6 µM)
Enterococcus faecalis [27]
  MBC: 26.6 µg/mL (≈ 60 µM)
Pseudomonas aeruginosa [28]
  zone of inhibition at 500 µg/mL: 18 mm
Escherichia coli [29]
  MIC: 6.25 µg/mL (≈ 14.1 µM)
Escherichia coli [30]
  MBC: 12.5 µg/mL (≈ 28.1 µM)
